Reference: patent publication US20110319392A1, “Thiazole Sulfonamide And Oxazole Sulfonamide Kinase Inhibitors” (priority 2009, published 2011)

Columns and labels:
Assay type in all cases: cell-based, Human
HN5 tumor cells = experiment: Cell growth inhibition assay (CellTiter-Glo), HN5; settings: Homo sapiens, 72 h; 3 days incubation
Procedure, shortened: (§1)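 Readout was CellTiter-Glo luminescence (total ATP, surrogate for cell number) after 3-day exposure at 37° C, 5% CO2 to 1:3 serial compound dilutions in 0.2% final DMSO. Seeding was 500 cells/well; IC50 derived by 4-parameter fit relative to vehicle-treated wells.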

BT474 tumor cells = experiment: Cell growth inhibition assay (CellTiter-Glo), BT474; settings: Homo sapiens, BT-474, 72 h, 3 days incubation
SK-MEL-28 tumor cells = experiment: Cell growth inhibition assay (CellTiter-Glo), SK-MEL-28; settings: Homo sapiens, SK-MEL-28, 72 h; 3 days incubation
Procedure, shortened: as §1

A375P F11s tumor cells = experiment: Cell growth inhibition assay (CellTiter-Glo), A375P F11s; settings: Homo sapiens
Procedure, shortened: as §1

HT-29 tumor cells = experiment: Cell growth inhibition assay (CellTiter-Glo), HT-29; settings: Homo sapiens
Procedure, shortened: as §1

SK-MEL-3 tumor cells = experiment: Cell growth inhibition assay (CellTiter-Glo), SK-MEL-3; settings: Homo sapiens, SK-MEL3
Procedure, shortened: as §1

Compound	IC50 (HN5 tumor cells)	IC50 (BT474 tumor cells)	IC50 (SK-MEL-28 tumor cells)	IC50 (A375P F11s tumor cells)	IC50 (HT-29 tumor cells)	IC50 (SK-MEL-3 tumor cells)
CCc1nc(-c2cccc(NS(=O)(=O)c3ccccc3)c2)c(-c2ccnc(Nc3ccc(N4CCN(C(C)=O)CC4)nc3)n2)s1 [Example 3, N-{3-[5-(2-{[6-(4-Acetyl-1-piperazinyl)-3-pyridinyl]amino}-4-pyrimidinyl)-2-ethyl-1,3-thiazol-4-yl]phenyl}benzenesulfonamide]	> 1000 nM	> 1000 nM	< 100 nM	< 100 nM	100 to 1000 nM	< 100 nM
CCc1nc(-c2cccc(NS(=O)(=O)c3ccccc3)c2)c(-c2ccnc(Nc3ccc(N4CCOCC4)c(F)c3)n2)s1 [Example 4]	100 to 1000 nM	> 1000 nM	100 to 1000 nM	100 to 1000 nM	100 to 1000 nM	100 to 1000 nM
CCc1nc(-c2cccc(NS(=O)(=O)c3ccccc3)c2)c(-c2ccnc(Nc3ccc(OC)c(N4CCN(CCS(C)(=O)=O)CC4)c3)n2)s1 [Example 5, N-[3-(2-Ethyl-5-{2-[(4-(methyloxy)-3-{4-[2-(methylsulfonyl)ethyl]-1-piperazinyl}phenyl)amino]-4-pyrimidinyl}-1,3-thiazol-4-yl)phenyl]benzenesulfonamide]	100 to 1000 nM	100 to 1000 nM	< 100 nM	< 100 nM	< 100 nM	< 100 nM
CC(=O)N1CCc2cc(Nc3nccc(-c4sc(C(C)C)nc4-c4cccc(NS(=O)(=O)c5ccccc5)c4)n3)ccc21 [Example 71]	100 to 1000 nM	> 1000 nM	< 100 nM	< 100 nM	< 100 nM	< 100 nM
CC(C)c1nc(-c2cccc(NS(=O)(=O)c3ccccc3)c2)c(-c2ccnc(Nc3ccc(CC4CCN(CCS(C)(=O)=O)CC4)c(F)c3)n2)s1 [Example 72]	100 to 1000 nM	> 1000 nM	100 to 1000 nM	100 to 1000 nM	100 to 1000 nM	< 100 nM
CC(C)c1nc(-c2cccc(NS(=O)(=O)c3ccccc3)c2)c(-c2ccnc(Nc3ccc(F)c(N4CCN(CCS(C)(=O)=O)CC4)c3)n2)s1 [Example 73]	100 to 1000 nM	> 1000 nM	< 100 nM	< 100 nM	100 to 1000 nM	< 100 nM
CC(C)c1nc(-c2cccc(NS(=O)(=O)c3ccccc3)c2)c(-c2ccnc(Nc3ccc(N4CCN(CCS(C)(=O)=O)CC4)c(F)c3F)n2)s1 [Example 74]	> 1000 nM	> 1000 nM	100 to 1000 nM	100 to 1000 nM	> 1000 nM	100 to 1000 nM
CC(C)c1nc(-c2cccc(NS(=O)(=O)c3c(F)cccc3F)c2)c(-c2ccnc(Nc3ccc(N4CCN(C(C)C)CC4)cc3O)n2)s1 [Example 78]	> 1000 nM	> 1000 nM	< 100 nM	< 100 nM	> 1000 nM	< 100 nM
COc1cc(N2CCN(CCF)CC2)ccc1Nc1nccc(-c2sc(C(C)C)nc2-c2cccc(NS(=O)(=O)c3c(F)cccc3F)c2)n1 [Example 79]	> 1000 nM	> 1000 nM	100 to 1000 nM	100 to 1000 nM	100 to 1000 nM	100 to 1000 nM
CC(C)c1nc(-c2cccc(NS(=O)(=O)c3c(F)cccc3F)c2)c(-c2ccnc(Nc3ccc(N4CCN(CCO)CC4)nc3)n2)s1 [Example 80]	100 to 1000 nM	> 1000 nM	< 100 nM	< 100 nM	100 to 1000 nM	< 100 nM
CC(C)c1nc(-c2cccc(NS(=O)(=O)c3c(F)cccc3F)c2)c(-c2ccnc(Nc3cccc(N4CCN(C)CC4)c3)n2)s1 [Example 81]	100 to 1000 nM	> 1000 nM	< 100 nM	< 100 nM	100 to 1000 nM	< 100 nM
CC(C)c1nc(-c2cccc(NS(=O)(=O)c3c(F)cccc3F)c2)c(-c2ccnc(Nc3ccc(N4CCCNCC4)nc3)n2)s1 [Example 82]	100 to 1000 nM	> 1000 nM	< 100 nM	< 100 nM	100 to 1000 nM	< 100 nM
CC(C)c1nc(-c2cc(F)cc(NS(=O)(=O)c3ccc(F)cc3)c2)c(-c2ccnc(Nc3ccc(N4CCOCC4)c(F)c3)n2)s1 [Example 83]	100 to 1000 nM	> 1000 nM	100 to 1000 nM	100 to 1000 nM	> 1000 nM	100 to 1000 nM

The next lines start with the values.

IC50 (HN5 tumor cells)	IC50 (BT474 tumor cells)	IC50 (SK-MEL-28 tumor cells)	IC50 (A375P F11s tumor cells)	IC50 (HT-29 tumor cells)	IC50 (SK-MEL-3 tumor cells)	Compound
100 to 1000 nM	> 1000 nM	< 100 nM	< 100 nM	< 100 nM	< 100 nM	CC(C)c1nc(-c2cc(F)cc(NS(=O)(=O)c3c(F)cccc3F)c2)c(-c2ccnc(Nc3ccc(N4CCOCC4)nc3)n2)s1 [Example 84]
100 to 1000 nM	–	< 100 nM	< 100 nM	100 to 1000 nM	< 100 nM	CC(C)c1nc(-c2cc(F)cc(NS(=O)(=O)c3c(F)cccc3F)c2)c(-c2ccnc(Nc3ccc(N4CCOCC4)c(F)c3)n2)s1 [Example 85]
> 1000 nM	> 1000 nM	< 100 nM	< 100 nM	100 to 1000 nM	< 100 nM	CC(C)c1nc(-c2cccc(NS(=O)(=O)c3c(F)cccc3F)c2)c(-c2ccnc(Nc3cc(F)c(N4CCN(CCS(C)(=O)=O)CC4)cc3F)n2)s1 [Example 87]
100 to 1000 nM	> 1000 nM	< 100 nM	< 100 nM	< 100 nM	< 100 nM	CC(C)c1nc(-c2cccc(NS(=O)(=O)c3c(F)cccc3F)c2)c(-c2ccnc(Nc3ccc(N4CCCN(CCS(C)(=O)=O)CC4)nc3)n2)s1 [Example 88]
100 to 1000 nM	> 1000 nM	< 100 nM	< 100 nM	> 1000 nM	< 100 nM	CC(C)c1nc(-c2cccc(NS(=O)(=O)c3c(F)cccc3F)c2)c(-c2ccnc(Nc3ccc(N4CC[C@@H](O)C4)nc3)n2)s1 [Example 89]
> 1000 nM	> 1000 nM	< 100 nM	100 to 1000 nM	> 1000 nM	100 to 1000 nM	Cc1cc(N2CCC(N3CCCCC3)CC2)ccc1Nc1nccc(-c2sc(C(C)C)nc2-c2cccc(NS(=O)(=O)c3c(F)cccc3F)c2)n1 [Example 91]
100 to 1000 nM	> 1000 nM	100 to 1000 nM	100 to 1000 nM	> 1000 nM	100 to 1000 nM	CC(C)c1nc(-c2cccc(NS(=O)(=O)c3ccccc3)c2)c(-c2ccnc(Nc3ccc(N4CCOCC4)cn3)n2)s1 [Example 92]
> 1000 nM	> 1000 nM	100 to 1000 nM	100 to 1000 nM	> 1000 nM	100 to 1000 nM	C=C(C)c1nc(-c2cccc(NS(=O)(=O)c3c(F)cccc3F)c2)c(-c2ccnc(Nc3ccc(N4CCN(CCF)CC4)c(F)c3)n2)s1 [Example 93]
100 to 1000 nM	> 1000 nM	< 100 nM	100 to 1000 nM	> 1000 nM	100 to 1000 nM	CC(C)c1nc(-c2ccc(F)c(NS(=O)(=O)c3c(F)cccc3F)c2)c(-c2ccnc(Nc3ccc(N4CCN(CCS(C)(=O)=O)CC4)c(F)c3)n2)s1 [Example 95]
100 to 1000 nM	> 1000 nM	< 100 nM	< 100 nM	< 100 nM	< 100 nM	CC(=O)N1CCN(c2ccc(Nc3nccc(-c4sc(C(C)C)nc4-c4cccc(NS(=O)(=O)c5cc(F)ccc5F)c4)n3)cn2)CC1 [Example 96]
